According to ChEMBL document CHEMBL3046838, “In vitro and in silico exploration of IL-2 inhibition by small drug-like molecules” (Med Chem Res, 2013):
≈ marks a conversion by molar mass, not a printed value.

Tests used:
Blood = test: Inhibition of ROS production in human whole blood after 30 mins by luminol-based chemiluminescence assay; assay type: functional, tissue-based; conditions: 0.5 h
PBMC [1] = test: Immunosuppressive activity in human PBMC assessed as inhibition of PHA-induced T cell proliferation after 72 hrs by [3H]thymidine incorporation assay; assay type: functional, cell-based
PBMC [2] = test: Immunosuppressive activity in human PBMC assessed as inhibition of PHA/PMA-induced IL-2 production after 18 hrs by ELISA; assay type: functional, cell-based
CC-1 = test: Cytotoxicity against rat CC1 after 48 hrs by MTT assay; assay type: cell-based; conditions: CC-1, 48 h
3T3-L1 = test: Cytotoxicity against mouse 3T3L1 after 48 hrs by MTT assay; assay type: cell-based; conditions: 3T3-L1, 48 h
[3] = target: T1, Interleukin-2 receptor subunit alpha (Homo sapiens, UniProt P01589); test: Competitive inhibition of IL2 receptor alpha (unknown origin)
T1 sequence (P01589 whole entry): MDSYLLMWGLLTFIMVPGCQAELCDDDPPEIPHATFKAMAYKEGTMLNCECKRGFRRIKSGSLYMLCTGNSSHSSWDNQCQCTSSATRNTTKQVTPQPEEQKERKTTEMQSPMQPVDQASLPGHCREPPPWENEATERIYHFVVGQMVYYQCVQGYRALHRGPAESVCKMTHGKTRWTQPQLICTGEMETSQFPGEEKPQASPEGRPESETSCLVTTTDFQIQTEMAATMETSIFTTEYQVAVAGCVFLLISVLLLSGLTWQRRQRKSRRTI

| SMILES | IC50 (Blood) | IC50 [3] | IC50 (PBMC [1]) | IC50 (PBMC [2]) | IC50 (CC-1) | IC50 (3T3-L1) |
| --- | --- | --- | --- | --- | --- | --- |
| CC1CC(=O)Nc2cc(N)ccc2N1 (configuration not stated) | 4.5 µg/mL (≈ 23.5 µM) |  | 4.4 µg/mL (≈ 23 µM) | 13 µg/mL (≈ 68 µM) |  |  |
| CC1(C)CC(=O)Nc2cc([N+](=O)[O-])ccc2N1 | 12.4 µg/mL (≈ 52.7 µM) |  |  |  |  |  |
| CC1C/C(=N\NC(=O)Nc2ccccc2)Nc2cc([N+](=O)[O-])ccc2N1 (configuration not stated) |  |  | 25.5 µg/mL (≈ 72 µM) |  |  |  |
| Cc1ccc(/C=C/C(=O)c2ccc(N)cc2)cc1 | 12.4 µg/mL (≈ 52.3 µM) |  | 3.2 µg/mL (≈ 13.5 µM) | 15.1 µg/mL (≈ 63.6 µM) |  |  |
| O=C(/C=C/c1ccccc1)c1ccccc1O [2'-HYDROXYCHALCONE] |  |  | 11 µg/mL (≈ 49.1 µM) | 19.7 µg/mL (≈ 87.8 µM) |  |  |

Second part, led by results:

| IC50 (Blood) | IC50 [3] | SMILES | IC50 (PBMC [1]) | IC50 (PBMC [2]) | IC50 (CC-1) | IC50 (3T3-L1) |
| --- | --- | --- | --- | --- | --- | --- |
| 24.4 µg/mL (≈ 94.7 µM) |  | Nc1ccc(C(=O)/C=C/c2cccc(Cl)c2)cc1 | < 0.5 µg/mL | 2.5 µg/mL (≈ 9.7 µM) | 16.7 µg/mL (≈ 64.8 µM) | 9.5 µg/mL (≈ 36.9 µM) |
| 4.8 µg/mL (≈ 21.4 µM) |  | O=C(/C=C/c1ccccc1)c1cccc(O)c1 | 8.2 µg/mL (≈ 36.6 µM) | 14.2 µg/mL (≈ 63.3 µM) |  |  |
| 31 µg/mL (≈ 139 µM) |  | Cc1ccc(/C=C/C(=O)c2ccccc2)cc1 | 7.8 µg/mL (≈ 35.1 µM) | 15.6 µg/mL (≈ 70.2 µM) |  |  |
|  | 6 µM | COC(=O)[C@H](Cc1ccc(C#Cc2ccccc2)cc1)NC(=O)C[C@H]1CCCN(C(=N)N)C1 |  |  |  |  |
